# Data: patent US20230250106A1, “COMPOUNDS AND COMPOSITIONS FOR TREATING CONDITIONS ASSOCIATED WITH STING ACTIVITY” (IFM Due, Inc., priority 2020, published 2023)
# System: STING pathway
# Assay: STING reporter assay: luciferase reporter activity in THP1-Dual KO-IFNAR2 cells activated with 2'3'cGAMP
# Type: cell-based
# Conditions: Homo sapiens, 2'3'cGAMP 15 μM, 24 h, read-out: hSTING EC50
# Procedure: STING pathway activation by the compounds described herein was measured using THP1-Dual™ cells (KO-IFNAR2).
# THP1-Dual™ KO-IFNAR2 Cells (obtained from invivogen) were maintained in RPMI, 10% FCS, 5 ml P/S, 2 mM L-glut, 10 mM Hepes, and 1 mM sodium pyruvate. Compounds were spotted in empty 384 well tissue culture plates (Greiner 781182) by Echo for a final concentration of 0.0017-100 μM. Cells were plated into the TC plates at 40 μL per well, 2×10E6 cells/mL. For activation with STING ligand, 2′3′cGAMP (MW 718.38, obtained from Invivogen), was prepared in Optimem media.
# The following solutions were prepared for each 1×384 plate: • Solution A: 2 mL Optimem with one of the following stimuli: • 60 μL of 10 mM 2′3′cGAMP→150 μM stock • Solution B: 2 mL Optimem with 60 μL Lipofectamine 2000→Incubate 5 min at RT
# 2 mL of solution A and 2 ml Solution B was mixed and incubated for 20 min at room temperature (RT). 20 μL of transfection solution (A+B) was added on top of the plated cells, with a final 2′3′cGAMP concentration of 15 μM. The plates were then centrifuged immediately at 340 g for 1 minute, after which they were incubated at 37° C., 5% CO2,>98% humidity for 24 h. Luciferase reporter activity was then measured. EC50 values were calculated by using standard methods known in the art.
# Luciferase reporter assay: 10 μL of supernatant from the assay was transferred to white 384-plate with flat bottom and squared wells. One pouch of QUANTI-Luc™ Plus was dissolved in 25 mL of water. 100 μL of QLC Stabilizer per 25 mL of QUANTI-Luc™ Plus solution was added. 50 μL of QUANTI-Luc™ Plus/QLC solution per well was then added. Luminescence was measured on a Platereader (e.g., Spectramax I3X (Molecular Devices GF3637001)).
# Luciferase reporter activity was then measured. EC50 values were calculated by using standard methods known in the art.
row,EC50 [nM],Structure (SMILES)
1,5000 to 100000,"Cc1cc(C(=O)Nc2c[nH]c3cc(F)c(F)cc23)cc(N2CCC(F)(F)CC2)n1 [Compound 175, N-(5,6-difluoro-1H-indol-3-yl)-2-(4,4-difluoropiperidin-1-yl)-6-methylisonicotinamide]"
2,200 to 1000,"O=C(Nc1c[nH]c2cc(F)c(F)cc12)c1ccc(CCC(F)(F)F)c(F)c1 [Compound 176, N-(5,6-difluoro-1H-indol-3-yl)-3-fluoro-4-(3,3,3-trifluoropropyl)benzamide]"
3,200 to 1000,"O=C(Nc1c[nH]c2cc(F)c(F)cc12)c1cccc(OC2CCCCC2)c1 [Compound 179, 3-(cyclohexyloxy)-N-(5,6-difluoro-1H-indol-3-yl)benzamide]"
4,200 to 1000,"O=C(Nc1c[nH]c2cc(F)c(F)cc12)c1ccc(CN2CC(F)(F)C2)c(F)c1 [Compound 181, N-(5,6-difluoro-1H-indol-3-yl)-4-((3,3-difluoroazetidin-1-yl)methyl)-3-fluorobenzamide]"
5,40 to 200,"O=C(Nc1c[nH]c2cc(F)c(F)cc12)c1cnc(N2CCC(OC(F)(F)F)CC2)cn1 [Compound 182, N-(5,6-difluoro-1H-indol-3-yl)-5-(4-(trifluoromethoxy)piperidin-1-yl)pyrazine-2-carboxamide]"
6,1000 to 5000,"COC1(C)CN(c2ncc(C(=O)Nc3c[nH]c4cc(F)c(F)cc34)cc2C)C1 [Compound 183, N-(5,6-difluoro-1H-indol-3-yl)-6-(3-methoxy-3-methylazetidin-1-yl)-5-methylnicotinamide]"
7,1000 to 5000,"COCCO[C@@H]1CCN(c2ncc(C(=O)Nc3c[nH]c4cc(F)c(F)cc34)cc2C)C1 [Compound 184, (R)-N-(5,6-difluoro-1H-indol-3-yl)-6-(3-(2-methoxyethoxy)pyrrolidin-1-yl)-5-methylnicotinamide]"
8,200 to 1000,"COCCO[C@@H]1CCN(c2ccc(C(=O)Nc3c[nH]c4cc(F)c(F)cc34)cc2F)C1 [Compound 185, (R)-N-(5,6-difluoro-1H-indol-3-yl)-3-fluoro-4-(3-(2-methoxyethoxy)pyrrolidin-1-yl)benzamide]"
9,1000 to 5000,"Cc1cc(C(=O)Nc2c[nH]c3cc(F)c(F)cc23)cc(C2CCCCC2)n1 [Compound 186, 2-cyclohexyl-N-(5,6-difluoro-1H-indol-3-yl)-6-methylisonicotinamide]"
10,200 to 1000,"O=C(Nc1c[nH]c2cc(F)c(F)cc12)c1ccc(C2(O)CCC(F)(F)CC2)cc1 [Compound 187, 4-(4,4-difluoro-1-hydroxycyclohexyl)-N-(5,6-difluoro-1H-indol-3-yl)benzamide]"
11,200 to 1000,"N#Cc1cc(C(=O)Nc2c[nH]c3cc(F)c(F)cc23)ccc1N1CCC(F)(F)CC1 [Compound 188, 3-cyano-N-(5,6-difluoro-1H-indol-3-yl)-4-(4,4-difluoropiperidin-1-yl)benzamide]"
12,200 to 1000,"O=C(Nc1c[nH]c2cc(F)c(F)cc12)c1cnc(N2CCC(C(F)(F)F)C2)c(Cl)c1 (centres unmarked) [Compound 189, 5-chloro-N-(5,6-difluoro-1H-indol-3-yl)-6-(3-(trifluoromethyl)pyrrolidin-1-yl)nicotinamide]"
13,200 to 1000,"O=C(Nc1c[nH]c2cc(F)ccc12)c1cnc(N2CCC(F)(F)CC2)c(Cl)c1 [Compound 190, 5-chloro-6-(4,4-difluoropiperidin-1-yl)-N-(6-fluoro-1H-indol-3-yl)nicotinamide]"
14,200 to 1000,"Cc1cc(C(=O)Nc2c[nH]c3cc(F)c(F)cc23)cnc1NCCCC(F)(F)F [Compound 191, N-(5,6-difluoro-1H-indol-3-yl)-5-methyl-6-((4,4,4-trifluorobutyl)amino)nicotinamide]"
15,1000 to 5000,"O=C(Nc1c[nH]c2cc(F)c(F)cc12)c1ccn(Cc2ccc(C(F)(F)F)cc2)c(=O)n1 [Compound 193, N-(5,6-difluoro-1H-indol-3-yl)-2-oxo-1-[[4-(trifluoromethyl)phenyl]methyl]pyrimidine-4-carboxamide]"
16,200 to 1000,"COCCOc1cccc(C(=O)Nc2c[nH]c3cc(F)c(F)cc23)c1 [Compound 194, N-(5,6-difluoro-1H-indol-3-yl)-3-(2-methoxyethoxy)benzamide]"
17,200 to 1000,"O=C(Nc1c[nH]c2cc(F)c(F)cc12)c1ccc(OCC2CC2)c(Cl)c1 [Compound 195, 3-chloro-4-(cyclopropylmethoxy)-N-(5,6-difluoro-1H-indol-3-yl)benzamide]"
18,200 to 1000,"O=C(Nc1c[nH]c2cc(F)c(F)cc12)c1ccc(OC2CCCCC2)cc1 [Compound 196, 4-(cyclohexyloxy)-N-(5,6-difluoro-1H-indol-3-yl)benzamide]"
19,200 to 1000,"O=C(Nc1c[nH]c2cc(F)c(F)cc12)c1ccc(OC(F)(F)F)nc1 [Compound 197, N-(5,6-difluoro-1H-indol-3-yl)-6-(trifluoromethoxy)pyridine-3-carboxamide]"
20,200 to 1000,"CCOc1c(F)ccc(C(=O)Nc2c[nH]c3cc(F)c(F)cc23)c1F [Compound 198, N-(5,6-difluoro-1H-indol-3-yl)-3-ethoxy-2,4-difluorobenzamide]"
21,200 to 1000,"CCOc1cc(F)c(C(=O)Nc2c[nH]c3cc(F)c(F)cc23)c(F)c1 [Compound 199, N-(5,6-difluoro-1H-indol-3-yl)-4-ethoxy-2,6-difluorobenzamide]"
22,200 to 1000,"O=C(Nc1c[nH]c2cc(F)c(F)cc12)c1ccnc(NCCCC(F)(F)F)c1 [Compound 203, N-(5,6-difluoro-1H-indol-3-yl)-2-((4,4,4-trifluorobutyl)amino)isonicotinamide]"
23,1000 to 5000,"Cc1cc(C(=O)Nc2c[nH]c3cc(F)c(F)cc23)cnc1N1CC2(CCOC2)C1 [Compound 207, N-(5,6-difluoro-1H-indol-3-yl)-5-methyl-6-(6-oxa-2-azaspiro[3.4]octan-2-yl)nicotinamide]"
24,200 to 1000,"CC(C)(CO)CCCNc1ncc(C(=O)Nc2c[nH]c3cc(F)c(F)cc23)cc1Cl [Compound 209, 5-chloro-N-(5,6-difluoro-1H-indol-3-yl)-6-((5-hydroxy-4,4-dimethylpentyl)amino)nicotinamide]"
25,200 to 1000,"N#CC1(c2ccc(C(=O)Nc3c[nH]c4cc(F)c(F)cc34)cc2)CCC(F)(F)CC1 [Compound 213, 4-(1-cyano-4,4-difluorocyclohexyl)-N-(5,6-difluoro-1H-indol-3-yl)benzamide]"
26,200 to 1000,"O=C(Nc1c[nH]c2cc(F)c(F)cc12)c1ccc(C2CC(F)(F)C2)nc1 [Compound 216, N-(5,6-difluoro-1H-indol-3-yl)-6-(3,3-difluorocyclobutyl)nicotinamide]"
27,40 to 200,"O=C(Nc1c[nH]c2cc(F)c(F)cc12)c1cnc(N2CCC3(CC2)CC3(F)F)c(F)c1 [Compound 219, N-(5,6-difluoro-1H-indol-3-yl)-6-(1,1-difluoro-6-azaspiro[2.5]octan-6-yl)-5-fluoronicotinamide]"
28,40 to 200,"CC1(c2ncc(C(=O)Nc3c[nH]c4cc(F)c(F)cc34)cc2F)CCC(F)(F)CC1 [Compound 220, 6-(4,4-difluoro-1-methylcyclohexyl)-N-(5,6-difluoro-1H-indol-3-yl)-5-fluoronicotinamide]"

row,Structure (SMILES),EC50 [nM]
1,"CC(C)n1cc(-c2ccc3[nH]cc(NC(=O)c4ccc(OCCCC(F)(F)F)cc4)c3c2)cn1 [Compound 180, N-(5-(1-isopropyl-1H-pyrazol-4-yl)-1H-indol-3-yl)-4-(4,4,4-trifluorobutoxy)benzamide]",200 to 1000
2,"O=C(Nc1c[nH]c2cc(F)ccc12)c1ccc(OCCCC(F)(F)F)c(F)c1 [Compound 192, 3-fluoro-N-(6-fluoro-1H-indol-3-yl)-4-(4,4,4-trifluorobutoxy)benzamide]",200 to 1000
3,"COCc1cccc(-n2cc(-c3ccc4[nH]cc(NC(=O)c5ccc(OCCCC(F)(F)F)cc5)c4c3)cn2)c1 [Compound 200, N-(5-(1-(3-(methoxymethyl)phenyl)-1H-pyrazol-4-yl)-1H-indol-3-yl)-4-(4,4,4-trifluorobutoxy)benzamide]",200 to 1000
4,"O=C(Nc1c[nH]c2ccc(-c3cnn(-c4cccc(C5CC5)c4)c3)cc12)c1ccc(OCCCC(F)(F)F)cc1 [Compound 201, N-(5-(1-(3-cyclopropylphenyl)-1H-pyrazol-4-yl)-1H-indol-3-yl)-4-(4,4,4-trifluorobutoxy)benzamide]",200 to 1000
5,"CC(C)n1cc(-c2cc(F)c3[nH]cc(NC(=O)c4ccc(OCCCC(F)(F)F)cc4)c3c2)cn1 [Compound 204, N-(7-fluoro-5-(1-isopropyl-1H-pyrazol-4-yl)-1H-indol-3-yl)-4-(4,4,4-trifluorobutoxy)benzamide]",200 to 1000
6,"Cc1nc(C(=O)Nc2c[nH]c3cc(F)c(F)cc23)cnc1OC1CC(F)(F)C1 [Compound 208, N-(5,6-difluoro-1H-indol-3-yl)-5-(3,3-difluorocyclobutoxy)-6-methylpyrazine-2-carboxamide]",200 to 1000
7,"CC1(c2ccc(C(=O)Nc3c[nH]c4cc(F)c(F)cc34)cn2)CCN(CC(F)(F)F)CC1 [Compound 218, N-(5,6-difluoro-1H-indol-3-yl)-6-(4-methyl-1-(2,2,2-trifluoroethyl)piperidin-4-yl)nicotinamide]",200 to 1000
